This note sets out measurements from patent US20140005165A1, “SUBSTITUTED 3-AZABICYCLO[3.1.0]HEXANE DERIVATIVES USEFUL AS CCR2 ANTAGONISTS” (priority 2011, published 2014).

Broadly, the IC50 is the concentration that gives 50% inhibition. Higher therefore signals a need for much substance.

For one experiment, the target named is T1, human CCR2 (Homo sapiens, UniProt P41597).
T1 construct: expressed in transfected cells; host or cells: Ba/F3 cells (membrane preparation)
T1 sequence (P41597 whole entry): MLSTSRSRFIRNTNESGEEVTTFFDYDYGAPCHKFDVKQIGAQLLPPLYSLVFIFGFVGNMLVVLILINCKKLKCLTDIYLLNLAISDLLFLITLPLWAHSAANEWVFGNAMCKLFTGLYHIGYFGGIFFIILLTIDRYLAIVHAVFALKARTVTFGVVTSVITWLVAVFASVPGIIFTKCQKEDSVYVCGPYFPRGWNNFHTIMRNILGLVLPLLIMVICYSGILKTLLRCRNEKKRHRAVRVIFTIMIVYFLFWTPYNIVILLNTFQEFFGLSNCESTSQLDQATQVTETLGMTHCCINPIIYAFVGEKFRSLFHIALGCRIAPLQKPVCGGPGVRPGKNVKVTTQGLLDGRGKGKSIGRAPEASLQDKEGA
Briefly: CCR2 Membrane Binding Assay (SPA radio-ligand binding, 125I-rhMCP-1). Particulars: membranes from Ba/F3 cells transfected with human CCR2; 0.03 nM 125I-rhMCP-1; 4 h room temperature. On the procedure:
The radio-ligand binding assay was done using scintillation proximity assay (SPA) technology. Briefly, membranes (1 μg per assay point) from Ba/F3 cells transfected with human CCR2, and wheat germ agglutinin-coated SPA beads (80 μg per point; Amersham, Arlington Heights, Ill.), were pre-incubated for 30 min at room temperature in CCR2 buffer (50 mM HEPES (pH=7.4), 10 mM MgCl2, 10 mM NaCl, 1 mM CaCL2, 0.1% BSA, 10 μg/ml Saponin). At this point pre-bound SPA bead, membrane complex was incubated at room temperature for 4 h with varying concentrations of punitive CCR2 antagonists (in 1% DMSO, final) and 0.03 nM ^125I-rhMCP-1 in CCR2Buffer (S.A. 2200 Ci/mmol, PerkinElmer Life and Analytical Science, Boston, Mass.; NEX332). Binding competition was measured using a 1450 Microbeta Trilux counter (Wallac, Gaithersburg, Md.). Binding constants (IC50 and slope) were calculated using GraphPad Prism software (GraphPad Software, Inc., La Jolla Calif.).
In turn, `O=C(CNC(=O)[C@H]1[C@@H]2CN(C3CCC(c4ccccc4)CC3)C[C@@H]21)Nc1cccc(C(F)(F)F)c1` (stereo partly drawn) [Compound 4] displayed a half-maximal inhibitory concentration (IC50) of 3.5 nM.

The experiment is the same for the next values; noted with them: membranes from Ba/F3 cells transfected with human CCR2; 0.03 nM 125I-rhMCP-1; class symbols.
Regarding `O=C(NCCc1cccc(C(F)(F)F)c1)C1[C@H]2CN(C3CCCCC3)C[C@@H]12` (stereo partly drawn) [Compound 1], the half-maximal inhibitory concentration (IC50) lay in the range of 51 to 200 nM. On the same count and under the same terms, then `O=C(CNC(=O)[C@H]1[C@@H]2CN(C3CCCCC3)C[C@@H]21)Nc1cccc(C(F)(F)F)c1` [Compound 2], with 51 to 200 nM. `O=C([C@H]1[C@@H]2CN([C@H]3CC[C@@H](c4ccccc4)CC3)C[C@@H]21)N1CC[C@@H](Nc2nccc(C(F)(F)F)n2)C1` [Compound 6]: the half-maximal inhibitory concentration (IC50) was 51 to 200 nM. Turning to `FC(F)(F)c1cccc(CN(Cc2cccc(C(F)(F)F)c2)c2nnc([C@H]3[C@@H]4CN([C@H]5CC[C@@H](c6ccccc6)CC5)C[C@@H]43)o2)c1` [Compound 8], the IC50 was 201 to 700 nM. Still for that read-out and setting: for `CCC(C)N1C[C@@H]2[C@H](C1)[C@H]2C(=O)NCC(=O)Nc1cccc(C(F)(F)F)c1` (stereo partly drawn) [Compound 9] the value was 51 to 200 nM. Consider `O=C(NCCc1ccccc1)[C@H]1[C@@H]2CN([C@H]3CC[C@@H](c4ccccc4)CC3)C[C@@H]21` [Compound 10], for which the “IC50 (nM)” value was “D (compounds with IC50 values between 701 nM and 110 nM are designated as D class compounds)”.

Consider `O=C(CNC(=O)[C@H]1[C@@H]2CN(C3CCCC3)C[C@@H]21)Nc1cccc(C(F)(F)F)c1` [Compound 11], for which the IC50 lay in the range of 51 to 200 nM. The same measure, in the same setting: then `CC(C1CC1)N1C[C@@H]2[C@H](C1)[C@H]2C(=O)NCC(=O)Nc1cccc(C(F)(F)F)c1` (stereo partly drawn) [Compound 12], with 201 to 700 nM; and `CCC(CC)N1C[C@@H]2[C@H](C1)[C@H]2C(=O)NCC(=O)Nc1cccc(C(F)(F)F)c1` [Compound 13], with 51 to 200 nM. Take `CCCC(C)N1C[C@@H]2[C@H](C1)[C@H]2C(=O)NCC(=O)Nc1cccc(C(F)(F)F)c1` (stereo partly drawn) [Compound 14]: the “IC50 (nM)” value is “D (compounds with IC50 values between 701 nM and 110 nM are designated as D class compounds)”. `COCC(C)N1C[C@@H]2[C@H](C1)[C@H]2C(=O)NCC(=O)Nc1cccc(C(F)(F)F)c1` (stereo partly drawn) [Compound 15] returned an IC50 of 201 to 700 nM. Turning to `O=C(NC1Cc2ccccc2C1)[C@H]1[C@@H]2CN([C@H]3CC[C@@H](c4ccccc4)CC3)C[C@@H]21` [Compound 16], the “IC50 (nM)” value was “D (compounds with IC50 values between 701 nM and 110 nM are designated as D class compounds)”. In turn, `CC(C)N1C[C@@H]2C(C(=O)NCCc3cccc(C(F)(F)F)c3)[C@@H]2C1` (stereo partly drawn) [Compound 18] showed an IC50 of 201 to 700 nM. On the same count and under the same terms, for `CC1CCC(N2C[C@@H]3[C@H](C2)[C@H]3C(=O)NCC(=O)Nc2cccc(C(F)(F)F)c2)C1` (stereo partly drawn) [Compound 19] the value was 201 to 700 nM. Consider `CC(N1C[C@@H]2[C@H](C1)[C@H]2C(=O)NCC(=O)Nc1cccc(C(F)(F)F)c1)C1(C)CC1` (stereo partly drawn) [Compound 20], for which the “IC50 (nM)” value is “D (compounds with IC50 values between 701 nM and 110 nM are designated as D class compounds)”. `O=C(CNC(=O)C1C2CN(C3CCOCC3)CC21)Nc1cccc(C(F)(F)F)c1` (stereo not drawn) [Compound 21] came in with a concentration for half-maximal inhibition (IC50) of 51 to 200 nM. Take `O=C(CNC(=O)[C@H]1[C@@H]2CN(C3CCCOC3)C[C@@H]21)Nc1cccc(C(F)(F)F)c1` (stereo partly drawn) [Compound 22]: the IC50 lay in the range of 51 to 200 nM. `O=C(CNC(=O)[C@H]1[C@@H]2CN(C3CC(CO)C3)C[C@@H]21)Nc1cccc(C(F)(F)F)c1` (stereo partly drawn) [Compound 23] came in with an IC50 of 201 to 700 nM.

Turning to `O=C([C@H]1[C@@H]2CN([C@H]3CC[C@@H](c4ccccc4)CC3)C[C@@H]21)N1CC(Oc2ccccc2)C1` [Compound 25], the “IC50 (nM)” value is “D (compounds with IC50 values between 701 nM and 110 nM are designated as D class compounds)”. As to `O=C(CNC(=O)[C@H]1[C@@H]2CN(C3C[C@@H]4CC[C@H]3C4)C[C@@H]21)Nc1cccc(C(F)(F)F)c1` (stereo partly drawn) [Compound 27], the IC50 was 51 to 200 nM.
